In patent US9845487B2, “Selective chromogenic medium” (SZEGEDI TUDOMÁNYEGYETEM, priority 2013, dated 2017):

Legend:
[1] = tested on: species causing the degradation of wine; test: growth of wine-degrading yeasts on selective medium with cycloheximide; format: cell-based; conditions: in the concentration used by the inventors
Description: (§1) The procedure requires no sterile laboratory conditions and only little attention is to be paid to ensure that the right sample is placed on the surface of the culture medium. The culture medium contains components easily available. In addition to components used for growth, the medium contains antibiotics inhibiting the growth of yeasts, e.g.—other culture media similar to selective Brettanomyces—cycloheximide as well. This antibiotic is used for the identification of different species in yeast diagnostics.
(§2) In the following examples, unless indicated otherwise, the following concentrations and compositions were applied. Composition of medium that was suitable for growing yeast cells was the following: 1% glucose, 0.67% “yeast nitrogen base”, 2% agar, which was made selectively by using 5 μg/ml cycloheximide as an antibiotics for blocking the growth of Saccharomyces strains. Azure-II-eosinate was used in a 30 μg/ml concentration.

[2] = tested on: Saccharomyces; test: growth of winemaking yeasts on selective medium with cycloheximide; format: cell-based; conditions: in the concentration used by the inventors
Description: as §1, §2

C[C@@H]1C[C@@H]([C@H](O)CC2CC(=O)NC(=O)C2)C(=O)[C@@H](C)C1 [cycloheximide]
tolerance by wine-degrading yeast species [1]: still tolerated | growth inhibition of winemaking yeasts [2]: prevents the growth of most yeasts playing a role in wine-making
